Data from PubChem BioAssay AID1745844 (Carcinogenic Potency Database (CPDB), 2022).
Several values for one entry are separate records, joined by “and”; a condition that tells them apart may be missing. Identical values can stand only once. Activity calls are given as the source filed them. How the calls were made is not given here.

System: rodent lifetime carcinogenesis bioassay, tumor incidence TD50
Assay: carcinogenic potency in animals, long-term in vivo studies, CPDB compilation (AID 1745844)
Details: inhaled; for carcinogen call: lesion: one or several types, types not named

SMILES: C=CC(=C)Cl
- TD50 (hamster, strain Syrian Golden, females, site: any site (literature study), lesion: several types, types named in the paper, dosed 78 weeks, study length 78 weeks): 180 mg/kg/day (inactive)
- carcinogen call (hamster, strain Syrian Golden, females, site: liver, dosed 78 weeks, study length 78 weeks): negative (inactive)
- carcinogen call (hamster, strain Syrian Golden, females, site: lung, dosed 78 weeks, study length 78 weeks): negative (inactive)
- TD50 (hamster, strain Syrian Golden, males, site: any site (literature study), lesion: several types, types named in the paper, dosed 78 weeks, study length 78 weeks): 110 mg/kg/day (inactive)
- carcinogen call (hamster, strain Syrian Golden, males, site: liver, dosed 78 weeks, study length 78 weeks): negative (inactive)
- carcinogen call (hamster, strain Syrian Golden, males, site: lung, dosed 78 weeks, study length 78 weeks): negative (inactive)
- TD50 (mouse, strain B6C3F1, females, site: Harderian gland, lesion: adenoma + carcinoma, dosed 104 weeks, study length 104 weeks): 55.2 mg/kg/day
- TD50 (mouse, strain B6C3F1, females, site: Harderian gland, lesion: adenoma, dosed 104 weeks, study length 104 weeks): 61.3 mg/kg/day
- TD50 (mouse, strain B6C3F1, females, site: Zymbal's gland, lesion: carcinoma, dosed 104 weeks, study length 104 weeks): 864 mg/kg/day
- TD50 (mouse, strain B6C3F1, females, site: all sites + forestomach + Harderian gland + liver + lung + mesentery + mammary gland + subcutaneous tissue + Zymbal's gland, lesion: hemangioma + hemangiosarcoma + squamous-cell carcinoma + squamous-cell papilloma + adenoma + carcinoma + hepatocellular adenoma + hepa, dosed 104 weeks, study length 104 weeks): 4 mg/kg/day
- TD50 (mouse, strain B6C3F1, females, site: all sites, lesion: hemangioma + hemangiosarcoma, dosed 104 weeks, study length 104 weeks): 21.5 mg/kg/day
- TD50 (mouse, strain B6C3F1, females, site: all sites, lesion: hemangioma, dosed 104 weeks, study length 104 weeks): 134 mg/kg/day
- TD50 (mouse, strain B6C3F1, females, site: all sites, lesion: hemangiosarcoma, dosed 104 weeks, study length 104 weeks): 22.2 mg/kg/day
- TD50 (mouse, strain B6C3F1, females, site: any site (literature study), lesion: several types, types named in the paper, dosed 104 weeks, study length 104 weeks): 3.92 mg/kg/day
- TD50 (mouse, strain B6C3F1, females, site: forestomach, lesion: squamous-cell carcinoma + squamous-cell papilloma, dosed 104 weeks, study length 104 weeks): 332 mg/kg/day
- TD50 (mouse, strain B6C3F1, females, site: liver, lesion: hepatocellular adenoma + hepatoblastoma + hepatocellular carcinoma, dosed 104 weeks, study length 104 weeks): 7.07 mg/kg/day
- TD50 (mouse, strain B6C3F1, females, site: liver, lesion: hepatocellular adenoma + hepatocellular carcinoma, dosed 104 weeks, study length 104 weeks): 7.07 mg/kg/day
- TD50 (mouse, strain B6C3F1, females, site: liver, lesion: hepatocellular adenoma, dosed 104 weeks, study length 104 weeks): 19.8 mg/kg/day
- TD50 (mouse, strain B6C3F1, females, site: liver, lesion: hepatocellular carcinoma, dosed 104 weeks, study length 104 weeks): 15.2 mg/kg/day
- TD50 (mouse, strain B6C3F1, females, site: lung, lesion: alveolar/bronchiolar adenoma + alveolar/bronchiolar carcinoma, dosed 104 weeks, study length 104 weeks): 5.36 mg/kg/day
- TD50 (mouse, strain B6C3F1, females, site: lung, lesion: alveolar/bronchiolar adenoma, dosed 104 weeks, study length 104 weeks): 8.65 mg/kg/day
- TD50 (mouse, strain B6C3F1, females, site: lung, lesion: alveolar/bronchiolar carcinoma, dosed 104 weeks, study length 104 weeks): 14.6 mg/kg/day
- TD50 (mouse, strain B6C3F1, females, site: mammary gland, lesion: adenoma + carcinoma, dosed 104 weeks, study length 104 weeks): 65.6 mg/kg/day
- TD50 (mouse, strain B6C3F1, females, site: mammary gland, lesion: carcinoma, dosed 104 weeks, study length 104 weeks): 75.3 mg/kg/day
- TD50 (mouse, strain B6C3F1, females, site: mesentery, lesion: hemangioma + hemangiosarcoma, dosed 104 weeks, study length 104 weeks): 25.9 mg/kg/day
- TD50 (mouse, strain B6C3F1, females, site: mesentery, lesion: hemangiosarcoma, dosed 104 weeks, study length 104 weeks): 32.2 mg/kg/day
- TD50 (mouse, strain B6C3F1, females, site: mesentery, lesion: sarcoma, dosed 104 weeks, study length 104 weeks): 40 mg/kg/day
- TD50 (mouse, strain B6C3F1, females, site: pituitary gland, lesion: pars distalis adenoma, dosed 104 weeks, study length 104 weeks): 68.1 mg/kg/day
- TD50 (mouse, strain B6C3F1, females, site: subcutaneous tissue, lesion: sarcoma, dosed 104 weeks, study length 104 weeks): 28.9 mg/kg/day
- TD50 (mouse, strain B6C3F1, females, site: uterus, lesion: endometrial stromal polyp, dosed 104 weeks, study length 104 weeks): 133 mg/kg/day
- TD50 (mouse, strain B6C3F1, males, site: Harderian gland, lesion: adenoma + adenoma, bilateral + carcinoma, dosed 104 weeks, study length 104 weeks): 60.9 mg/kg/day
- TD50 (mouse, strain B6C3F1, males, site: Harderian gland, lesion: adenoma + adenoma, bilateral, dosed 104 weeks, study length 104 weeks): 79.5 mg/kg/day
- TD50 (mouse, strain B6C3F1, males, site: all sites + forestomach + Harderian gland + lung, lesion: hemangioma + hemangiosarcoma + squamous-cell carcinoma + squamous-cell papilloma + adenoma + adenoma, bilateral + carcinoma + alveolar, dosed 104 weeks, study length 104 weeks): 8.68 mg/kg/day
- TD50 (mouse, strain B6C3F1, males, site: all sites, lesion: hemangioma + hemangiosarcoma, dosed 104 weeks, study length 104 weeks): 17.9 mg/kg/day and 21.3 mg/kg/day
- TD50 (mouse, strain B6C3F1, males, site: all sites, lesion: hemangiosarcoma, dosed 104 weeks, study length 104 weeks): 19.1 mg/kg/day and 23.8 mg/kg/day
- TD50 (mouse, strain B6C3F1, males, site: any site (literature study), lesion: several types, types named in the paper, dosed 104 weeks, study length 104 weeks): 28.4 mg/kg/day
- TD50 (mouse, strain B6C3F1, males, site: forestomach, lesion: squamous-cell carcinoma + squamous-cell papilloma, dosed 104 weeks, study length 104 weeks): 291 mg/kg/day
- TD50 (mouse, strain B6C3F1, males, site: forestomach, lesion: squamous-cell papilloma, dosed 104 weeks, study length 104 weeks): 335 mg/kg/day
- TD50 (mouse, strain B6C3F1, males, site: kidney, lesion: tubule adenoma, dosed 104 weeks, study length 104 weeks): 301 mg/kg/day and 129 mg/kg/day
- TD50 (mouse, strain B6C3F1, males, site: liver, lesion: hemangiosarcoma, dosed 104 weeks, study length 104 weeks): 123 mg/kg/day
- TD50 (mouse, strain B6C3F1, males, site: liver, lesion: hepatoblastoma + hepatocellular carcinoma, dosed 104 weeks, study length 104 weeks): 19.5 mg/kg/day
- TD50 (mouse, strain B6C3F1, males, site: liver, lesion: hepatocellular adenoma + hepatoblastoma + hepatocellular carcinoma, dosed 104 weeks, study length 104 weeks): 39.9 mg/kg/day
- TD50 (mouse, strain B6C3F1, males, site: liver, lesion: hepatocellular adenoma + hepatocellular carcinoma, dosed 104 weeks, study length 104 weeks): 42.5 mg/kg/day
- TD50 (mouse, strain B6C3F1, males, site: liver, lesion: hepatocellular adenoma, dosed 104 weeks, study length 104 weeks): 71.9 mg/kg/day
- TD50 (mouse, strain B6C3F1, males, site: liver, lesion: hepatocellular carcinoma, dosed 104 weeks, study length 104 weeks): 21.6 mg/kg/day
